Here are results for three molecules from US10015966B2, “Fungicidal pyrazole mixtures” (E I DU PONT DE NEMOURS AND COMPANY, priority 2012, dated 2018).

What all share (format): in vivo
In one experiment the test system is Septoria tritici. In words: Test F: preventive spray on wheat seedlings, wheat leaf blotch, visual disease rating. Particulars: Zymoseptoria tritici, 200 ppm test suspension. How it is done:
General protocol for preparing test suspensions for Tests A-I: the test compounds were first dissolved in acetone in an amount equal to 3% of the final volume and then suspended at the desired concentration (in ppm) in acetone and purified water (50/50 mix by volume) containing 250 ppm of the surfactant Trem® 014 (polyhydric alcohol esters). The resulting test suspensions were then used in Tests A-I. Each test was conducted in triplicate, and the results were averaged. Spraying a 200 ppm test suspension to the point of run-off on the test plants was the equivalent of a rate of about 800 g/ha. Unless otherwise indicated, the rating values indicate a 200 ppm test suspension was used. (An asterisk “*” next to the rating value indicates a 40 ppm test suspension was used.) The test suspension was sprayed to the point of run-off on wheat seedlings. The following day the seedlings were inoculated with a spore suspension of Septoria tritici (the causal agent of wheat leaf blotch) and incubated in saturated atmosphere at 24° C. for 48 h. and then the seedlings were moved to a growth chamber at 20° C. for 19 additional days, after which time visual disease ratings were made. Results for Tests A-I are given in Table A. In the Table, a rating of 100 indicates 100% disease control and a rating of 0 indicates no disease control (relative to the controls). A hyphen (-) indicates no test results.

In a further experiment the test system is Botrytis cinerea. Put plainly: Test A: preventive spray on tomato seedlings, tomato Botrytis, visual disease rating. Particulars: 200 ppm test suspension. On the procedure: General protocol for preparing test suspensions for Tests A-I: the test compounds were first dissolved in acetone in an amount equal to 3% of the final volume and then suspended at the desired concentration (in ppm) in acetone and purified water (50/50 mix by volume) containing 250 ppm of the surfactant Trem® 014 (polyhydric alcohol esters). The resulting test suspensions were then used in Tests A-I. Each test was conducted in triplicate, and the results were averaged. Spraying a 200 ppm test suspension to the point of run-off on the test plants was the equivalent of a rate of about 800 g/ha. Unless otherwise indicated, the rating values indicate a 200 ppm test suspension was used. (An asterisk “*” next to the rating value indicates a 40 ppm test suspension was used.) The test suspension was sprayed to the point of run-off on tomato seedlings. The following day the seedlings were inoculated with a spore suspension of Botrytis cinerea (the causal agent of tomato Botrytis) and incubated in saturated atmosphere at 20° C. for 48 h, and then moved to a growth chamber at 24° C. for 3 additional days, after which time visual disease ratings were made. Results for Tests A-I are given in Table A. In the Table, a rating of 100 indicates 100% disease control and a rating of 0 indicates no disease control (relative to the controls). A hyphen (-) indicates no test results.

The test system of experiment [1] is Puccinia recondita f. sp. tritici. In words: Test H: preventive spray on wheat seedlings, wheat leaf rust, visual disease rating. As to conditions: 200 ppm test suspension. On the procedure: General protocol for preparing test suspensions for Tests A-I: the test compounds were first dissolved in acetone in an amount equal to 3% of the final volume and then suspended at the desired concentration (in ppm) in acetone and purified water (50/50 mix by volume) containing 250 ppm of the surfactant Trem® 014 (polyhydric alcohol esters). The resulting test suspensions were then used in Tests A-I. Each test was conducted in triplicate, and the results were averaged. Spraying a 200 ppm test suspension to the point of run-off on the test plants was the equivalent of a rate of about 800 g/ha. Unless otherwise indicated, the rating values indicate a 200 ppm test suspension was used. (An asterisk “*” next to the rating value indicates a 40 ppm test suspension was used.) The test suspension was sprayed to the point of run-off on wheat seedlings. The following day the seedlings were inoculated with a spore suspension of Puccinia recondita f. sp. tritici (the causal agent of wheat leaf rust) and incubated in a saturated atmosphere at 20° C. for 24 h, and then moved to a growth chamber at 20° C. for 6 days, after which time visual disease ratings were made. Results for Tests A-I are given in Table A. In the Table, a rating of 100 indicates 100% disease control and a rating of 0 indicates no disease control (relative to the controls). A hyphen (-) indicates no test results.

Experiment [2] has as its system Blumeria graminis f. sp. tritici. In words: Test I: preventive spray on wheat seedlings, wheat powdery mildew, visual disease rating. As to conditions: 192 h, 200 ppm test suspension. How it is done:
General protocol for preparing test suspensions for Tests A-I: the test compounds were first dissolved in acetone in an amount equal to 3% of the final volume and then suspended at the desired concentration (in ppm) in acetone and purified water (50/50 mix by volume) containing 250 ppm of the surfactant Trem® 014 (polyhydric alcohol esters). The resulting test suspensions were then used in Tests A-I. Each test was conducted in triplicate, and the results were averaged. Spraying a 200 ppm test suspension to the point of run-off on the test plants was the equivalent of a rate of about 800 g/ha. Unless otherwise indicated, the rating values indicate a 200 ppm test suspension was used. (An asterisk “*” next to the rating value indicates a 40 ppm test suspension was used.) The test suspension was sprayed to the point of run-off on wheat seedlings. The following day the seedlings were inoculated with a spore dust of Blumeria graminis f. sp. tritici (also known as Erysiphe graminis f. sp. tritici, the causal agent of wheat powdery mildew) and incubated in a growth chamber at 20° C. for 8 days, after which time visual disease ratings were made. Results for Tests A-I are given in Table A. In the Table, a rating of 100 indicates 100% disease control and a rating of 0 indicates no disease control (relative to the controls). A hyphen (-) indicates no test results.

Another experiment relates to Alternaria solani. In words: Test B: preventive spray on tomato seedlings, tomato early blight, visual disease rating. Particulars: 200 ppm test suspension. How it is done:
General protocol for preparing test suspensions for Tests A-I: the test compounds were first dissolved in acetone in an amount equal to 3% of the final volume and then suspended at the desired concentration (in ppm) in acetone and purified water (50/50 mix by volume) containing 250 ppm of the surfactant Trem® 014 (polyhydric alcohol esters). The resulting test suspensions were then used in Tests A-I. Each test was conducted in triplicate, and the results were averaged. Spraying a 200 ppm test suspension to the point of run-off on the test plants was the equivalent of a rate of about 800 g/ha. Unless otherwise indicated, the rating values indicate a 200 ppm test suspension was used. (An asterisk “*” next to the rating value indicates a 40 ppm test suspension was used.) The test suspension was sprayed to the point of run-off on tomato seedlings. The following day the seedlings were inoculated with a spore suspension of Alternaria solani (the causal agent of tomato early blight) and incubated in a saturated atmosphere at 27° C. for 48 h, and then moved to a growth chamber at 20° C. for 5 days, after which time visual disease ratings were made. Results for Tests A-I are given in Table A. In the Table, a rating of 100 indicates 100% disease control and a rating of 0 indicates no disease control (relative to the controls). A hyphen (-) indicates no test results.

Take `Cc1nn(C)c(Nc2ccccc2F)c1-c1ccc(F)cc1Cl` [Compound 1, 4-(2-chloro-4-fluorophenyl)-N-(2-fluorophenyl)-1,3-dimethyl-1H-pyrazol-5-amine]: the pest or weed control (as a rule, how far the test organism was held down) at 200 ppm with Septoria tritici was 100%; in the experiment on Botrytis cinerea, 99%; in experiment [1] it was 99%; in experiment [2] it was 100%. In addition, the “Test B rating (% disease control)” value in the experiment on Alternaria solani is listed as 93%.

Turning to `Cc1nn(C)c(Nc2c(F)cccc2F)c1-c1ccc(F)cc1Cl` [Compound 2, 4-(2-chloro-4-fluorophenyl)-N-(2,6-difluorophenyl)-1,3-dimethyl-1H-pyrazol-5-amine], the pest or weed control at 200 ppm in the experiment on Septoria tritici was 100%; with Botrytis cinerea, 100%; in experiment [1] it was 99%; in experiment [2], 100%. Further, the “Test B rating (% disease control)” value with Alternaria solani is 100%.

For the molecule `Cc1nn(C)c(Nc2c(F)cccc2Cl)c1-c1ccc(F)cc1Cl` [Compound 3, 4-(2-chloro-4-fluorophenyl)-N-(2-chloro-6-fluorophenyl)-1,3-dimethyl-1H-pyrazol-5-amine], the pest or weed control at 200 ppm in the experiment with Septoria tritici turned out to be 100%; in the experiment on Botrytis cinerea, 100%; in experiment [1], 100%; in experiment [2], 99%. The “Test B rating (% disease control)” value in the experiment with Alternaria solani was found to be 100%.
